This test deals with human adenosine A2a receptor (Homo sapiens (Human), UniProt P29274). In words: A2a receptor binding affinity, [3H]-NECA radioligand binding test. The following applies: [3H]-NECA 37 nM; membrane from HEK-293 cells transfected with human adenosine A2a receptor. Put shortly: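 IC50 values (μM) come from displacement of [3H]-NECA, used at 37 nM final, on human A2a receptor membranes from transfected HEK-293 cells. Incubation lasted one hour at room temperature in Tris/MgCl2/EDTA buffer, pH 7.4; filter-bound radioactivity was counted by scintillation.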
Sequence of human adenosine A2a receptor (P29274 whole entry): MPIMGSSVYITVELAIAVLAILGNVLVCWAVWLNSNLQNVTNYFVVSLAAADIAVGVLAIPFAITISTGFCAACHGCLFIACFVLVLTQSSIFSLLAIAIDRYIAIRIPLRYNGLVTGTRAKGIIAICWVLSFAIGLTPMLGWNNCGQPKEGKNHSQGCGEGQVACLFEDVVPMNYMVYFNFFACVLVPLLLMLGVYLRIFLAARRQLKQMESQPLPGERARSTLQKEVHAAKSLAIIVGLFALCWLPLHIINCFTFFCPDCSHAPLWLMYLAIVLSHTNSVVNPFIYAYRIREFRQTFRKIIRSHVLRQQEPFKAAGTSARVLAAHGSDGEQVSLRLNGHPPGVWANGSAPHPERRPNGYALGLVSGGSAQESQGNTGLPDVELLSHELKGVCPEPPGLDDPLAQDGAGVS

In the case of `Nc1nc(N2CC[C@H]2C(=O)N2CCN(CC(F)(F)C(F)(F)F)CC2)nc2nc(-c3ccco3)nn12` [Example 256, (S)-(1-(7-amino-2-(furan-2-yl)-[1,2,4]triazolo[1,5-a][1,3,5]triazin-5-yl)azetidin-2-yl)(4-(2,2,3,3,3-pentafluoropropyl)piperazin-1-yl)methanone], the IC50 came to 1 nM.

As for `Nc1nc(N2CC[C@H]2C(=O)N2CCC(CN3CCC(C(F)(F)F)CC3)CC2)nc2nc(-c3ccco3)nn12` [Example 402, (S)-(1-(7-amino-2-(furan-2-yl)-[1,2,4]triazolo[1,5-a][1,3,5]triazin-5-yl)azetidin-2-yl)(4-((4-(trifluoromethyl)piperidin-1-yl)methyl)piperidin-1-yl)methanone], the IC50 came out at 10 nM.

As to `Nc1nc(N2CCC[C@H]2C(=O)N2CCC(C(=O)NCc3ccccc3)CC2)nc2nc(-c3ccco3)nn12` [Example 81, 1-((7-amino-2-(furan-2-yl)-[1,2,4]triazolo[1,5-a][1,3,5]triazin-5-yl)-L-prolyl)-N-benzylpiperidin-4-carboxamide], the 50% inhibitory concentration (IC50) stood at 8 nM.

In turn, `Nc1nc(N2CCC[C@H]2C(=O)N2CCN(c3ccc(F)cc3F)CC2)nc2nc(-c3ccco3)nn12` [Example 12, (S)-(1-(7-amino-2-(furan-2-yl)-[1,2,4]triazolo[1,5-a][1,3,5]triazin-5-yl)pyrrolidin-2-yl)(4-(2,4-difluorophenyl)piperazin-1-yl)methanone] displayed a half-maximal inhibitory concentration (IC50) of 1.43 nM. This IC50 is about 5.6-fold lower than that of the compound before.

`Cc1ccc(-c2nc3nc(N4CCC[C@H]4C(=O)N4CCN(CCCC(F)(F)F)CC4)nc(N)n3n2)o1` [Example 300, (S)-(1-(7-amino-2-(5-methylfuran-2-yl)-[1,2,4]triazolo[1,5-a][1,3,5]triazin-5-yl)pyrrolidin-2-yl)(4-(4,4,4-trifluorobutyl)piperazin-1-yl)methanone]: the IC50 turned out to be 9 nM. This IC50 is about 6.3-fold higher than that of the compound before.

Turning to `COCCOc1ccc(N2CCN(C(=O)[C@@H]3CCCN3c3nc(N)n4nc(-c5ccco5)nc4n3)CC2)cc1` [Example 310, (S)-(1-(7-amino-2-(furan-2-yl)-[1,2,4]triazolo[1,5-a][1,3,5]triazin-5-yl)pyrrolidin-2-yl)(4-(4-(2-methoxyethoxy)phenyl)piperazin-1-yl)methanone], the IC50 is 12 nM.

The compound `CCCCN1CCN(C(=O)[C@H](COC)Nc2nc(N)n3nc(-c4ccco4)nc3n2)CC1` [Example 401, (S)-2-((7-amino-2-(furan-2-yl)-[1,2,4]triazolo[1,5-a][1,3,5]triazin-5-yl)amino)-1-(4-butylpiperazin-1-yl)-3-methoxypropan-1-one] displayed a 50% inhibitory concentration (IC50) of 11 nM.

Compound `CC(C)[C@H](Nc1nc(N)n2nc(-c3ccco3)nc2n1)C(=O)N1CCN(c2ccc(F)cc2F)CC1` [Example 10, (S)-2-((7-amino-2-(furan-2-yl)-[1,2,4]triazolo[1,5-a][1,3,5]triazin-5-yl)amino)-1-(4-(2,4-difluorophenyl)piperazin-1-yl)-3-methylbutan-1-one] returned an IC50 of 0.357 nM.

On to `Cc1cnc(C(=O)N2CCN(C(=O)[C@@H]3CCCN3c3nc(N)n4nc(-c5ccco5)nc4n3)CC2)s1` [Example 103], for which the IC50 turned out to be 6 nM.

The compound `C[C@H](Nc1nc(N)n2nc(-c3ccco3)nc2n1)C(=O)N1CCN(c2nccs2)CC1` [Example 251, (S)-2-((7-amino-2-(furan-2-yl)-[1,2,4]triazolo[1,5-a][1,3,5]triazin-5-yl)amino)-1-(4-(thiazol-2-yl)piperazin-1-yl)propan-1-one] showed an IC50 of 13 nM. This IC50 lies about 2.2-fold higher than the previous one.

The compound `Nc1nc(N2CCC[C@H]2C(=O)N2CCN(C(=O)c3ccccc3)CC2)nc2nc(-c3ccco3)nn12` [Example 46] gave an IC50 of 6 nM. Against the preceding compound, the IC50 is about 2.2-fold lower.

Regarding `CC(C)(F)CN1CCN(C(=O)[C@H]2CCCN2c2nc(N)n3nc(-c4ccco4)nc3n2)CC1` [Example 93, (R)-(1-(7-amino-2-(furan-2-yl)-[1,2,4]triazolo[1,5-a][1,3,5]triazin-5-yl)pyrrolidin-2-yl)(4-(2-fluoro-2-methylpropyl)piperazin-1-yl)methanone], the IC50 stood at 3790 nM. Compared with the last compound, the IC50 is about 630-fold higher.

Source of the values: patent publication US20240217978A1 (CHONG KUN DANG PHARMACEUTICAL CORP., priority 2021, published 2024).
